Data as given in patent publication US20250064789A1, “KETOAMIDE DERIVATIVES AND PHARMACEUTICAL USES THEREOF” (priority 2022, published 2025).
Read-outs that look alike come from different tables or passages of the source.

Columns and labels:
[1] = biological target: recombinant SARS-CoV-2 M^pro (Severe acute respiratory syndrome coronavirus 2 (2019-nCoV) (SARS-CoV-2), UniProt P0DTD1); test: Inhibition of SARS-CoV-2 M^pro enzyme activity (fluorescent substrate assay); type: biochemical; conditions: inhibition of SARS-CoV-2 M^pro enzyme activity, read-out: IC50
[2] = Cytotoxic assay against Vero E6 cells (MTT, 72 h); type: cell-based; conditions: African green monkey
Protocol: The cytotoxicity assessment of compounds was performed against Vero E6 cells. The specific experimental procedures: Vero E6 cells were seeded into a 96-well plate at a cell density of 2×10^4 cells/well, with 100 μL/well, and then incubated overnight at 37° C. in a 5% CO2 incubator. The next day, 100 μL of drug-containing medium was added to each well. The compound was diluted in a 2-fold serial dilution with a top concentration of […], for a total of 6 gradients. Three repeated wells were set for each concentration, and negative controls and blank controls without drugs were included for each experiment. […] All experimental data were analyzed using GraphPad Prism software.

Compound	IC50 ([1]; values in nM)	other results
CC(C)(NC(=O)[C@H]1CC[C@@H](F)CC1)C(=O)N[C@H](Cc1ccccc1)C(=O)C(=O)NCc1ccccn1 [Compound 175]	47.3 ± 2.8 nM	–
CC(C)(NC(=O)C(=O)c1ccccc1)C(=O)N[C@H](Cc1ccccc1)C(=O)C(=O)NCc1ccccn1 [Compound 179]	14.5 ± 1.9 nM	–
C[C@@H](NC(=O)C1CCC(F)(F)CC1)C(=O)N[C@H](CC1CCCCC1)C(=O)C(=O)NCc1ccccn1 [Compound 365]	23.1 ± 1 nM	–
N#Cc1cccc(-c2cnn(CC(=O)N[C@H](Cc3ccccc3)C(=O)C(=O)NCc3nccs3)c2)c1 [Compound 496]	77 ± 4.1 nM	–
O=C(NCc1ccccn1)C(=O)[C@@H](Cc1ccccc1)NC(=O)C1(NC(=O)c2cnccn2)CC1 [Compound 158]	252 ± 9 nM	–
O=C(NCc1ccccn1)C(=O)[C@@H](Cc1ccccc1)NC(=O)[C@H]1CCCCN1C(=O)[C@H](NC(=O)c1cnccn1)C1CCCCC1 [Compound 284]	14.4 ± 0.2 nM	–
CC(C)(NC(=O)[C@@H]1C[C@@H]2[C@H](C1)C2(F)F)C(=O)N[C@H](Cc1ccccc1)C(=O)C(=O)NCc1ccccn1 [Compound 174]	13.2 ± 1 nM	CC50 at 72 h [2]: > 500000 nM
C[C@@H](NC(=O)C1CCc2cc(F)ccc2O1)C(=O)N[C@H](Cc1ccccc1)C(=O)C(=O)NCc1ccccn1 (stereo partly shown) [Compound 85]	56.7 ± 2.7 nM	–
O=C(NCc1ccccn1)C(=O)[C@@H](Cc1ccccc1)NC(=O)[C@H]1CC(F)(F)CN1C(=O)CC1CCC(F)(F)CC1 [Compound 276]	13 ± 0.8 nM	–
O=C(NCc1ccccn1)C(=O)[C@@H](Cc1ccccc1)NC(=O)[C@@H]1[C@H]2CCC[C@H]2CN1C(=O)COc1ccc(Cl)c(Cl)c1 [Compound 257]	71.8 ± 0.1 nM	–
C[C@@H](NC(=O)c1ccnc(F)c1)C(=O)N[C@H](Cc1ccccc1)C(=O)C(=O)NCc1ccccn1 [Compound 108]	66.4 ± 1.2 nM	–
O=C(NCc1ccccn1)C(=O)[C@@H](Cc1ccccc1)NC(=O)C1c2ccccc2CN1C(=O)C1CCC(F)(F)CC1 (stereo partly shown) [Compound 266]	34.4 ± 2.3 nM	–
C[C@@H](OCc1ccc(F)cc1)C(=O)N[C@H](Cc1ccccc1)C(=O)C(=O)NCc1ccccn1 [Compound 9]	12.1 ± 2.5 nM	–
O=C(NCc1ccccn1)C(=O)[C@@H](Cc1ccccc1)NC(=O)C1(NC(=O)C2CC(=O)N(c3ccccc3)C2)CCC1 (stereo partly shown) [Compound 190]	29.6 nM	–
O=C(CNC(=O)C1CCC(F)(F)CC1)N[C@H](Cc1cccc(Cl)c1)C(=O)C(=O)NCc1ccccn1 [Compound 448]	59.9 ± 0.5 nM	–
O=C(NCc1ccccn1)C(=O)[C@@H](Cc1ccccc1)NC(=O)[C@H]1CC2CCCCC2N1C(=O)N1CCC(F)(F)CC1 (stereo partly shown) [Compound 309]	19.4 nM	–
O=C(NCc1ccccn1)C(=O)[C@@H](Cc1ccccc1)NC(=O)[C@H]1CC(F)CN1C(=O)C1CCC(F)(F)CC1 (stereo partly shown) [Compound 278]	33.7 ± 0.5 nM	–
C[C@H](NC(=O)C1CCC(F)(F)CC1)C(=O)N[C@H](Cc1ccccc1)C(=O)C(=O)NCc1ccccn1 [Compound 452]	66.2 ± 0.9 nM	–
COc1cccnc1CNC(=O)C(=O)[C@@H](Cc1ccccc1)NC(=O)[C@@H](C)OCc1ccccc1 [Compound 39]	–	IC50 ([1]; values given in μM): > 5000 nM
O=C(Cc1csc(C2CCC(F)(F)CC2)n1)N[C@H](Cc1ccccc1)C(=O)C(=O)NCc1nccs1 [Compound 511, (R)-3-(2-(2-(4,4-difluorocyclohexyl)thiazole-4-yl)acetamido)-2-oxo-4-phenyl-N-(thiazole-2-ylmethyl)butyramide]	30.4 ± 2.1 nM	–
NC(=O)C[C@@H](NC(=O)c1ccc(F)cc1)C(=O)N[C@H](Cc1ccccc1)C(=O)C(=O)NCc1ccccn1 [Compound 254]	45.5 ± 3.1 nM	–
